In data set [1] the test system is SD rats. The data set can be described thus: Effect on blood pressure of urethane-anesthetized SD rats. It is filed as in vivo. Particulars: 4.0 mg/kg orally. On the procedure: Four SD rats were anesthetized with urethane ([…]); after vital signs were stable, measure blood pressure through carotid artery cannulation. After blood pressure is stabilized, compound II-36 was administered orally (4.0 mg/kg, body weight), and blood pressure changes with time were recorded; study results are shown in Table 4, 5 and 6.

Data set [2] has as its system Ca^2+ channel. Briefly: Antagonism of CaCl2 cumulative contraction of rabbit aorta, pA2. Particulars: CaCl2 cumulative contraction after Ca-free hyperkalemia depolarization. An excerpt:
Calcium-free K—H solution: Remove CaCl2 from K—H solution, add an equal number of moles of KCl, and add EDTA^−2Na^+ 0.1 mmol/L, while the other components remain unchanged.
Calcium-free hyperkalemia solution: Remove CaCl2 from hyperkalemia solution, add an equal number of moles of KCl, and add EDTA^−2Na^+ 0.1 mmol/L, while the other components remain unchanged.
(§1) Cut the chest open quickly after stunning, strip out the descending aorta, then after removing the surrounding connective tissue and adipose tissue (if performed serotonin receptor antagonist experiments, endothelial cells should be removed using a smooth stainless steel bars), cut the vessels into 3-5 mm vascular ring, then pass the steel hook through the blood vessel ring, with one end is fixed to the vent hook and the other end connected to the tension transducer, then place the specimens into bath tube containing 20 mL of nutrient solution, and record tension change by tension transducer. Maintain tube temperature at 37±0.5° C., and pass bubbles (95% O2+5% CO2) into the solution as a speed of 1-2 bubbles/minute. Place an initial load of 1.5 g on the rings, and change nutrient every 20 minutes, then balance for 2 hours and start test after baseline readings are stabilized.
After the tension is stabilized, wash the specimen three times and incubate with Ca-free K—H solution for 40 minutes; depolarize with Ca-free hyperkalemia solution for 20 minutes, and then add CaCl2 (10^−6-10^−2 mol/L) to the tube until a maximum response is achieved, and then record the curve. Then wash with K—H solution repeatedly, and replace with fresh K—H solution every 20 minutes; after balancing for 60 minutes and the baseline values are stabilized, wash the specimen again three times, and incubate with Ca-free K—H solution for 40 minutes; depolarize with Ca-free hyperkalemia solution for 20 minutes, and then add compound II-36 (3×10^−6 mol/L) to the tube, and incubate for 20 minutes; then add CaCl2 (10^−6-10^−2 mol/L) until a maximum response is achieved, and then record the curve. Mark CaCl2 contraction as ordinate using maximum response as 100% base. […] PA2 value of compound II-36 is 5.61±0.04 against CaCl2 contraction effect on rabbit aorta.
After the tension is stabilized, wash the specimen three times and incubate with Ca-free K—H solution for 40 minutes; depolarize with Ca-free hyperkalemia solution for 20 minutes, and then add CaCl2 (10^−6-10^−2 mol/L) to the tube until a maximum response is achieved, and then record the curve. […]

Data set [3] has as its system Kunming mice. Briefly: Bone marrow micronucleus test. Particulars: mouse, in vivo. The protocol: After four days of continuous administration, perform bone marrow micronucleus test on the 5th day.
Positive contro, Cyclophosphamide 60 mg/kg/day; negative control, saline solution 0.1 ml/10 g/day. After four days of continuous administration, perform bone marrow micronucleus test on the 5th day.
The mice were sacrificed by cervical dislocation, and quickly stripped out of the femur and sternum;
blood and muscles were removed, epiphysis was cleaned; then sternum bone marrow was transfer with a hemostat squeeze onto clean slides with drops of calf serum or wash the femoral the marrow with fetal calf serum directly onto clean slides; after mixing, adjust slides well; then put the adjusted and aired slide into a staining jar filled with methanol, and allow to fix for 15 minutes; and then take it out and place in air until dry out; then, use freshly prepared Giemsa application solution (one sample of Giemsa stock solution and nine samples of phosphate buffer pH 6.8), stained for 10 minutes to wash away slide dye with small stream of water, and then observe under a microscope after it is dried.

Data set [4] concerns 5-HT2A receptors. Briefly: Antagonism of 5-HT cumulative contraction of rabbit aorta, pA2.
Text: as §1
After the tension is stabilized, record a certain length of the curve, and add 5-HT (10^−7-3×10^−4 mol/L) to the tube until a maximum response is achieved, and then record the curve. Then wash the specimen with K—H solution repeatedly, balance for 1.5 h, add compound II-36 (3×10^−6 mol/L), and 20 minutes later, add 5-HT following a same procedure. Mark 5-HT contraction as ordinate using maximum response as 100% base. […]

[5] abbreviates: time after administration 90, n = 4.

The structures appear in SMILES notation.

For the compound `FC(F)(F)c1cccc(N2CCN(CCCCn3cnc4ccccc43)CC2)c1` [Compound II-36, 1-(4-(4-(3-trifluoromethylphenyl)piperazin-1-yl)butyl)-1H-benzimidazole], the “hypotensive effect (in words)” value in data set [1] is recorded as “significant hypotensive effect”. The “time until blood pressure recovered to the level before administration” value in data set [1] was 3.5 h. The “mean arterial pressure (MAP)” value came out at 91.50 mmHg in data set [1] (time after administration 0, n = 4); 73.40 mmHg in data set [1] (time after administration 15, n = 4); 74.52 mmHg in data set [1] (time after administration 30, n = 4); 72.77 mmHg in data set [1] (time after administration 60, n = 4); 68.81 mmHg in data set [1] (setting [5]); 83.12 mmHg in data set [1] (time after administration 120, n = 4). Moreover, the “mean arterial pressure (MAP)” value in data set [1] (time after administration 150, n = 4) was 84.47 mmHg; in data set [1] (time after administration 180, n = 4), 84.83 mmHg; in data set [1] (time after administration 210, n = 4), 88.54 mmHg. The “Systolic blood pressure (SBP)” value in data set [1] (setting [5]) stood at 98.71 mmHg. The “PA2 value against CaCl2 contraction” value in data set [2] is recorded as 5.61±0.04. The “polychromatic erythrocytes with micronucleus” value in data set [3] (both, Kunming, 4 days) is recorded as 2.0±0.333 ‰. Besides, in data set [3], the “bone marrow micronucleus test result” value was “negative”.
For the compound `FC(F)(F)c1cccc(N2CCN(CCCCn3nnc4ccccc43)CC2)c1` [Compound II-65, 1-(4-(4-(3-trifluoromethylphenyl)piperazin-1-yl)butyl)-1H-benzotriazole], the “PA2 value against CaCl2 contraction” value in data set [2] was determined as 6.56±0.032. Moreover, the “PA2 value against 5-HT contraction” value in data set [4] was determined as 6.726±0.089.
In the case of `c1ccc2c(c1)nnn2CCCCN1CCN(c2nsc3ccccc23)CC1` [Compound II-68, 3-(4-(4-(1H-benzotriazol-1-yl)butyl)piperazin-1-yl)benzisothiazole], in data set [2], the “PA2 value against CaCl2 contraction” value stood at 5.36±0.26. The “PA2 value against 5-HT contraction” value in data set [4] is listed as 8.86±0.14.

For the origin of these results see US9802929B2, “Benzo five-membered nitrogen heterocyclic piperidine or piperazine derivatives and preparation methods and pharmaceutical compositions thereof” (Shenyang Haiwang Biotechnology Co., Ltd., priority 2012, dated 2017).
